Consider one compound from patent publication US11213495B2, “Method and composition for decreasing the psychotomimetic side effect and addictive disorder of ketamine” (NATIONAL HEALTH RESEARCH INSTITUTES, priority 2016, dated 2022).

Each structure is given as a SMILES string.

Assay type in all cases: in vivo
Test [1] concerns Male ICR mice. Briefly: Rotarod test (motor coordination). Conditions: DMG 30 and 100 mg/kg prior to ketamine 30 mg/kg. On the procedure: Motor coordination was examined using an automated rotarod device (Singa; Technology Co., Ltd, Taiwan) for a maximum of 6 mice. A computer recorded the latency to fall in seconds. During two-three days training period, the mice were first trained on the rotarod at a constant speed of 20 rotations per minute (rpm) until all of the mice were able to spend at least 3 min on the road. The test drug (0, 30 and 100 mg/kg) was administered 30 min prior to the ketamine (30 mg/kg) or saline injection. Then, the mice were tested 10, 15, 20, 25, and 30 min after ketamine injection.
(In general: In the rotarod test animals must keep their balance on a rotating rod.)

The subject of test [2] is Male ICR mice. Briefly: Novel object recognition test (NORT). Particulars: DMG 100 mg/kg pretreatment, ketamine 30 mg/kg; 24 h after sample phase. On the procedure:
(§1) The novel location recognition test (NLRT) and novel object recognition test (NORT) were examined in a Plexiglas open field box (35×35×30 cm) located in a sound-attenuated room and illuminated with a 20-W light bulb. The novel location and novel object recognition procedure consisted of habituation, training, and retention sessions. Habituation was conducted in two consecutive daily sessions, during which each mouse was allowed to individually explore the box in the absence of objects for 20 min. The animal is then removed from the arena and placed in its home cage. During the sample phase, each animal was placed in the box, and after 5 min, two identical sample objects (A+A) were simultaneously introduced in two corners. Each animal was allowed to explore the objects for 5 min. An animal was considered to explore the object when its head was facing the object at a distance of approximately 1 cm or less between the head and object or when it was touching or sniffing the object. The time spent exploring each object was recorded using stopwatches by an experimenter blind to the treatment condition.
After the sample phase, the mice were immediately returned to their home cages. The novel location recognition test was conducted 30 min after the training session. The animals were returned to the same box as during the sample phase, and one of the two objects was replaced with a novel local corner (A+A′) to test the location-based recognition memory. After 24 hours, novel object recognition test was performed. The mice are allowed to explore the open field with one identical sample object and a novel object to assess the novel object recognition memory (A+B). The animals were allowed to explore the box freely for 5 min, and the time spent exploring each object was recorded as described above. The objects and chambers were cleaned with 70% ethanol after each use. A preference index, a ratio of the amount of time spent exploring the original object or the novel location/object over the total time spent exploring both objects, was used to evaluate recognition memory. […]

Test [3] deals with Male ICR mice. Put plainly: Forced swim test (FST): duration of immobility, struggling and swimming. Conditions: DMG 30 mg/kg pretreatment prior to ketamine 10 mg/kg. On the procedure:
FST was conducted for two consecutive days. Mice were placed in a Plexiglas cylinder (33.5 cm height, 20 cm diameter) filled with 25±2° C. water to a height of 18-20 cm. For the first exposure, mice were placed in the water for 15 min (pre-test session) followed by […]. Twenty-four hours later (day 1 test session), various doses of test drug (at 0, 30 and 100 mg/kg) was administered 30 min prior to the ketamine (10 mg/kg) or saline. Then, the mice were tested 30 min after ketamine injection which placed in the water again for a 6 min session (test session), the first 2 minutes has elapsed. Immobility was assigned when no additional activity was observed other than that required to keep the head above the water.
This experiment included a control group and various doses of ketamine (3, 10, 15 mg/kg), betaine (10, 20, 30 mg/kg) and betaine (10, 20, 30 mg/kg) pretreatment prior to ketamine (fixed dose at 10 mg/kg). […] There was no significant effect of test session or interaction.

For test [4], the system named is Male ICR mice. Put plainly: Open field test / locomotor activity. Particulars: DMG 30 and 100 mg/kg pretreatment 30 min prior to ketamine 30 mg/kg. On the procedure: To evaluate the effect of DMG on ketamine-induced locomotor hyperactivity, the animals were moved from the home cage, weighed and placed into an activity cage (Columbus Auto-Track System, Version 3.0 A, Columbus Institute, Columbus, Ohio, USA) for 2 hours. Thereafter, the test drug (0, 30, and 100 mg/kg) was given 30 min prior to ketamine (30 mg/kg) or saline. The distance (cm) traveled was recorded for totally 180 min. A 70% alcohol solution was used to clean the inner surface of all the testing apparatus between trials to remove any potentially interfering odors left by the previous mouse.

Test [5] has as its system Male ICR mice. Put plainly: Forced swim test (FST): duration of immobility, struggling and swimming.
A further test has as its system Male Sprague-Dawley rats. Briefly: Ketamine intravenous self-administration (IVSA) under progressive ratio (PR) schedule. On the procedure: The dose-dependent effects of betaine and its metabolite DMG on ketamine addiction were evaluated by the intravenous self-administration (IVSA) paradigm under a progressive ratio (PR) schedule. Animals were implanted indwelling catheters flushing of ketamine (0.5 mg/kg/per infusion), termed the training dose, under a FR1 schedule during daily 3-h sessions. After acquisition of stable responding for ketamine (criterion of less than 20% deviation from the mean of the total number of reinforcers earned in three consecutive sessions for each rat), the ketamine reinforcement schedule was changed to FR2 and maintained until responding stabilized at least for 3 days. Then, the PR schedule was conducted. The lever presses required to gain an infusion was determined by: 5×e^(infusion number×0.2)−5 (i.e., 1, 2, 4, 6, 9, […], 15, 20, 25, 32, etc). […] The dose-dependent effects of betaine of self-administration of various doses of ketamine ([…]) were assessed by pretreatment 30 min prior to their daily operant session using a within-subject Latin square design.

For test [6], the system named is Male ICR mice. Briefly: Novel location recognition test (NLRT). Particulars: DMG 100 mg/kg pretreatment, ketamine 30 mg/kg; 30 min after sample phase. On the procedure: as §1
After the sample phase, the mice were immediately returned to their home cages. […] The animals were allowed to explore the box freely for 5 min, and the time spent exploring each object was recorded as described above. […]

The subject of test [7] is Male ICR mice. Briefly: Loss of righting reflex (LORR). Particulars: DMG 100 and 300 mg/kg 30 min prior to ketamine 100 mg/kg. On the procedure: The test drug betaine (0, 300, and 600 mg/kg) or DMG (0, 100 and 300 mg/kg) was administered 30 min prior to the anesthetic doses of ketamine (100 mg/kg). Then, the mice were placed in a clean cage until the righting reflex was lost. They were then placed in the supine position until recovery and the onset and duration of the loss of righting reflex was recorded. Recovery of the righting reflex was defined as the ability to perform three successive rightings.

Test [8] has as its system Male ICR mice. Put plainly: Prepulse inhibition test (PPI) of acoustic startle. Conditions: DMG 100 mg/kg pretreatment, ketamine 30 mg/kg; p<0.001. The protocol: The PPI was operated as described in our previous work (Chan et al., 2012a). Briefly, the animals were initially moved from the home cage, weighed, and then placed into the restrainers in the SR-LAB (San Diego Instruments, San Diego, Calif., USA) acoustic startle chambers for 30-min habituation. The test drug (0, 30 and 100 mg/kg) was administered 30 min prior to ketamine (30 mg/kg) or saline injection. After administration of ketamine or saline, the experiment started with a 5-min adaptation period during which the animals were exposed to 67-dB background white noise, and this background noise was continued throughout the session. Then, the following adaptation period startle session began with five initial startle stimuli (120 dB bursts of white noise, 40 ms duration). After the first five initial stimuli, mice received five different trial types: pulse alone trials (120 dB bursts of white noise, 40 ms duration), three prepulse and pulse trials in which 76, 81, or 86 dB white noise bursts (9, 14, and 19 dB above background) of 20 ms duration preceded 120 dB pulse by 100 ms prepulse onset to pulse onset, and no-stimuli trials during which only background noise was applied. Each of these trial types was presented five times in randomized order. The inter trial interval was 7-23 s, and the test lasted 15 min in total. Prepulse inhibition was calculated as the percent inhibition of the startle amplitude evoked by the pulse alone: % PPI=(magnitude on pulse alone trial−magnitude on prepulse+pulse trial/magnitude on pulse alone trial)×100.

For `CN(C)CC(=O)O` [DMG, N,N-dimethylglycine], the “ketamine-induced motor in coordination” value with Male ICR mice [1] is reported as “significantly reduced”. Besides, the “ketamine-induced recognition memory impairment in NORT” value in the test with Male ICR mice [2] is “significantly attenuated”. The “duration of immobility in FST compared with ketamine (10 mg/kg) alone” value in the test on Male ICR mice [3] is on record as “significantly shorter duration of immobility”. Moreover, in the test with Male ICR mice [4], the ketamine-induced locomotor hyperactivity entry was “reduced”. Moreover, in the test on Male ICR mice [5] (DMG 10, 20 and 30 mg/kg alone), the “duration of immobility in FST” value is recorded as “significantly decreased”. For the same compound, the “duration of immobility in FST” value in the test with Male ICR mice [5] (DMG 10, 20 and 30 mg/kg pretreatment prior to ketamine 10 mg/kg) is given as “significantly decreased”. Further, the “reduction of cumulative responses by ketamine” value with Male Sprague-Dawley rats (DMG 100 mg/kg pretreatment, ketamine 0.3 mg/kg/infusion, PR schedule) was 40%. Also, in the test on Male Sprague-Dawley rats (DMG pretreatment), the “ketamine self-administration under PR schedule” value is recorded as “significantly decreased”. Besides, in the test on Male ICR mice [6], the “ketamine-induced recognition memory impairment in NLRT” value is “significantly attenuated”. In the test with Male ICR mice [7], the “duration of ketamine-induced loss of righting reflex” value is on record as “did not affect” and the “onset of ketamine-induced loss of righting reflex” value is listed as “did not affect”. Moreover, in the test with Male ICR mice [8], the “ketamine-induced disruption of PPI” value is reported as “significantly attenuated”.
